Our source for the Kd values is PMC5599990, “Matriptase Induction of Metalloproteinase‐Dependent Aggrecanolysis In Vitro and In Vivo: Promotion of Osteoarthritic Cartilage Damage by Multiple Mechanisms” (Arthritis & Rheumatology (Hoboken, N.j.), 2017).

Molecules are shown by their SMILES.

The test has as its target T1, matriptase (Homo sapiens, UniProt Q9Y5Y6).
T1 construct: gene ST14; catalytic domain; amino acids 596–855
T1 sequence (Q9Y5Y6 596-855): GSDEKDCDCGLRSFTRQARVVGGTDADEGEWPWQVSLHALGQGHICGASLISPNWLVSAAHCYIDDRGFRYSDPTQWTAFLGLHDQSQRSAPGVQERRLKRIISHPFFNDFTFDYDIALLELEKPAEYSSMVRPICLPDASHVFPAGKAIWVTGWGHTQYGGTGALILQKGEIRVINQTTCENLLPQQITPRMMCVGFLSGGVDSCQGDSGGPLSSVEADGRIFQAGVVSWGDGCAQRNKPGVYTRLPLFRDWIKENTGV
The experiment in a line: isothermal titration calorimetry at […] °C ([…] stoichiometry); also enzyme inhibition, Ki =[…]. It is filed as binding. Background: In ITC the heat of successive injections is recorded.

For `N=C(N)c1cccc(C[C@H](NS(=O)(=O)c2cccc(NC(=O)CCN)c2)C(=O)N2CCC(CCN)CC2)c1` [compound 59, (S)‐3‐amino‐N‐(3‐(N‐(1‐(4‐(2‐aminoethyl)piperidin‐1‐yl)‐3‐(3‐carbamimidoylphenyl)‐1‐oxopropan‐2‐yl)sulfamoyl)phenyl)propanamide × 3HCl], binding was characterised by a dissociation constant (Kd) of 20 nM.
